Legend:
excised wheat leaf tips = experiment: Antisenescence test, retention of chlorophyll in excised wheat leaf tips; design: species or system Triticum aestivum cv. Hereward; settings: for activity (%) [10^−4 mol · l^−1 BAP = 100%]: retention of chlorophyll in excised wheat leaf tips at the concentration with highest activity, 10 replicate determinations; for concentration with highest activity: retention of chlorophyll in excised wheat leaf tips, tested range 10^−8 M to 10^−4 M, 96 h in the dark at 25° C.
Experimental: Testing of antisenescence properties of novel cytokinin compounds on wheat leaf segments. Seeds of winter wheat, Triticum aestivum cv. Hereward, were washed under running water for 24 hours and then sown on vermiculite soaked with the Knop's solution. They were placed in the grow chamber at 25° C. with a 16 h-8 h light period at 50 mmol.m^−2.s^−1. After 7 days, the first leaf was fully developed and the second leaf had started to grow. A 35 mm long tip section of the first leaf, was removed from each of 5 seedlings and trimmed slightly to a combined weight of 100 mg. The basal ends of the five leaf tips were placed in the wells of a microtiter polystyrene plate containing […] of the solution of the tested compound each. The entire plate was inserted into a plastic box lined with paper tissues soaked with distilled water to prevent leaf sections from drying out. After 96 h incubation in the dark at 25° C., the leaves were removed and chlorophyll was extracted by heating at 80° C. for 10 min in 5 ml of 80% ethanol (v/v). The sample volume was then restored to 5 ml by the addition of 80% ethanol (v/v). The absorbance of the extract was recorded at 665 nm. In addition, chlorophyll extracts from fresh leaves and leaf tips incubated in deionized water were measured. […] Relative activity of the compound at this concentration was calculated (Table 7). The activity obtained for 10^−4 M 6-benzylaminopurine (BAP) was defined as 100%. The values shown are means of five replicates and the whole experiment was repeated twice.
(§1) The compounds to be tested were dissolved in dimethylsulfoxide (DMSO) and the solution brought up to 10^−3 M with distilled water.

[1] = tested on: human diploid fibroblasts (HCA cells, HCA20, HCA40, HCA60); experiment: Senescent cells (β-galactosidase staining) in culture of human fibroblasts; type: cell-based; settings: for SENESCENT CELLS (%) HCA20: human fibroblasts passage 20 (HCA20); for SENESCENT CELLS (%) HCA40: human fibroblasts passage 40 (HCA40); for SENESCENT CELLS (%) HCA60: human fibroblasts passage 60 (HCA60)
Experimental: In this example, human diploid fibroblasts (HCA cells of various passage levels: passage 20—designated HCA20; passage 40—designated HCA40; passage 60—designated HCA60) were stained for β-galactosidase activity. The medium used for the cell cultivation was removed, the cells were washed twice in […], and fixed in 2-3 ml of fixing solution comprised of a 2% formaldehyde and 0.2% glutaraldehyde in PBS. The cells were incubated at room temperature for 5 minutes, and then washed twice with PBS. The cells were subsequently incubated at 37° C.

[2] = tested on: Amaranthus caudatus cotyledon/hypocotyl explants; experiment: Amaranthus bioassay (betacyanin content); design: species or system Amaranthus caudatus var. atropurpurea; settings: for concentration with highest activity: betacyanin content after 48 h incubation, tested 10^−8 M to 10^−4 M; for Activity (%) [10^−5 mol · l^−1 BAP = 100%]: betacyanin content at the concentration with highest activity, 10^−5 M BAP = 100%
Experimental: Testing of novel compounds for typical cytokinin activity in Amaranthus bioassay. A standard Amaranthus bioassay was performed with several modifications. The seeds of Amaranthus caudatus var. atropurpurea were surface-sterilized in 10% (w/v) N-chlorobenzenesulfonamide for 10 min and washed 5 times with deionized water. They were placed in 14 cm Petri dishes containing paper tissues saturated with deionized water. After 72 h of cultivation at 25° C. in darkness, the roots of the seedlings were cut off. The explants, consisting of two cotyledons and hypocotyls, were placed in 5 cm Petri dishes onto two layers of filter paper soaked with 1 ml of the incubation medium containing 10 mmol of NA2HPO4—KH2PO4, pH 6.8, 5 mmol of tyrosine and the compound to be tested. There were 20 explants per dish. The procedure was carried out under a green safe light in a darkroom. […] The concentration of betacyanin was determined from the absorbencies at 537 nm and 620 nm as follows: DA=A537 nm−A620 nm. […] Relative activity of the compound at this concentration was calculated. The activity obtained for 10^−5 M 6-benzylaminopurine (BAP) was defined as 100%.
as §1

[3] = tested on: cytokinin-dependent tobacco callus Nicotiana tabacum L. cv. Wisconsin 38; experiment: Cytokinin activity in tobacco callus bioassay; type: cell-based; settings: for concentration with highest activity: growth of tobacco callus, four weeks of cultivation, tested 10^−8 M to 10^−4 M; for Activity (%) [10^−5 mol · l^−1 BAP = 100%]: increase of fresh callus weight at the concentration with highest activity, 10^−5 M BAP = 100%
Experimental: Estimation of cytokinin biological activity of novel compounds in callus bioassay. Cytokinin-dependent tobacco callus Nicotiana tabacum L. cv. […] Subcultivation was carried out every three weeks. Fourteen days before the bioassay, the callus tissue was transferred to the media without the compound tested. The biological activity was determined from the increase of the fresh callus weight after four weeks of cultivation. Five replicates were prepared for each concentration of the compound tested and the entire test was repeated twice. […] The relative activity of the compound at this concentration was calculated (Table 8). […] The compounds to be tested were dissolved in dimethylsulfoxide (DMSO) and the solution brought up to 10^−3 M with distilled water. This stock solution was further diluted with the respective media used for the biotest to a concentration ranging from 10^−8 M to 10^−4 M.

Compound	activity (%) [10^−4 mol · l^−1 BAP = 100%] (excised wheat leaf tips) [%]	concentration with highest activity (excised wheat leaf tips)	SENESCENT CELLS (%) HCA20 [1] [%]	SENESCENT CELLS (%) HCA40 [1] [%]	SENESCENT CELLS (%) HCA60 [1] [%]	concentration with highest activity [2]	Activity (%) [10^−5 mol · l^−1 BAP = 100%] [2] [%]	concentration with highest activity [3]	Activity (%) [10^−5 mol · l^−1 BAP = 100%] [3] [%]
CC(CO)CCNc1ncnc2c1ncn2C1CCCCO1 (stereo not drawn) [6-(4-hydroxy-3-methylbutylamino)-9-(tetrahydropyran-2-yl)purine]	95	10^−4 mol · l^−1	5	2	25	10^−4 mol · l^−1	83	10^−5 mol · l^−1	112
COc1cc(O)cc(OC)c1Nc1ncnc2c1ncn2C1CCCCO1 (stereo not drawn)	14	10^−4 mol · l^−1	4	6	24	10^−4 mol · l^−1	8	10^−5 mol · l^−1	15
Cc1cccc(CNc2ncnc3c2ncn3C2CCCCO2)c1O (stereo not drawn)	16.4	10^−4 mol · l^−1	4	6	30	10^−4 mol · l^−1	68.8	10^−5 mol · l^−1	9.2
COc1cc(Nc2ncnc3c2ncn3C2CCCCO2)cc(OC)c1O (stereo not drawn)	28	10^−4 mol · l^−1	4	5	22	10^−4 mol · l^−1	10	10^−5 mol · l^−1	19
COc1cc(CNc2ncnc3c2ncn3C2CCCCO2)cc(OC)c1O (stereo not drawn)	42	10^−4 mol · l^−1	4	5	17	10^−4 mol · l^−1	8	10^−5 mol · l^−1	39
Oc1ccccc1Nc1ncnc2c1ncn2C1CCCCO1 (stereo not drawn) [2-hydroxyanilino / tetrahydropyran-2-yl]	11	10^−4 mol · l^−1	4	6	29	10^−4 mol · l^−1	65	10^−5 mol · l^−1	30
Cc1ccc(O)c(CNc2ncnc3c2ncn3C2CCCCO2)c1 (stereo not drawn)	82	10^−4 mol · l^−1	5	4	30	10^−4 mol · l^−1	68.4	10^−4 mol · l^−1	121
